# Experimental data reported in patent US9309242B2, “Substituted pyrido[2,3-b]pyrazines as FGFR kinase inhibitors” (priority 2011, dated 2016).
# Where two headings read alike, the source gives them in different places.
# Legend:
# KDR (h) = KDR (h) (Homo sapiens, UniProt P35968); assay: KDR (VEGFR2) (enzymatic assay), TR-FRET; assay type: biochemical; conditions: average values if tested multiple times, read-out: VEGFR 2 (KDR) pIC50 (converted)
# In short: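 Phosphorylation of biotinylated Flt3 peptide (500 nM) by 150 ng/ml enzyme was measured at 3 μM ATP in Mn2+-containing HEPES buffer, pH 7.5, over 120 min at room temperature. Detection used Eu-anti-P-Tyr and SA-XL-665 TR-FRET.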
# FGFR1 (h) = FGFR1 (h) (Homo sapiens, UniProt P11362); assay: FGFR1 (enzymatic assay), TR-FRET; assay type: biochemical; conditions: average values if tested multiple times, read-out: FGFR 1 pIC50 (converted)
# FGFR1 (h), sequence (P11362 22-822): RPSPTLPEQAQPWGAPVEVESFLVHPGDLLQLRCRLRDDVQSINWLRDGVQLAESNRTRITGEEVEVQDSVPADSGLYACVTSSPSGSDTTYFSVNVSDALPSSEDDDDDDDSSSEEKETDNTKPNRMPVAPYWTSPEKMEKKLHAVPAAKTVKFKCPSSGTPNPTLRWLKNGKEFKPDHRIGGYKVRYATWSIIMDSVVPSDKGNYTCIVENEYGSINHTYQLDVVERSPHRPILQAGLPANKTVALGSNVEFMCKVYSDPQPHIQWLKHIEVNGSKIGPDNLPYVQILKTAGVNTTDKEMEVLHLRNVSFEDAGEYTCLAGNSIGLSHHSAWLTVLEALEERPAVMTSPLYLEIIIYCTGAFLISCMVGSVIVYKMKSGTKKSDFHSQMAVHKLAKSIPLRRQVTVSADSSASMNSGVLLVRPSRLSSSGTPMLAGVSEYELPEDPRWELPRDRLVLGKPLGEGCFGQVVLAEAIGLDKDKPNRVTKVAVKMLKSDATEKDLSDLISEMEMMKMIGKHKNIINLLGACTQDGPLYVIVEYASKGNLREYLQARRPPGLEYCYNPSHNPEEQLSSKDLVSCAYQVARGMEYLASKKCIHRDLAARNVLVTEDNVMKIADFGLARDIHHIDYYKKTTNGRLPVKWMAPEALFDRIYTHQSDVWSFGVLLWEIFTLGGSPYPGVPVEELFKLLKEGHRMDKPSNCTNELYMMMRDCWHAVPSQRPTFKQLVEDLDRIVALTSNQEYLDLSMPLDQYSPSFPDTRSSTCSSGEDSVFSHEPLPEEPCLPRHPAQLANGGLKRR
# FGFR2 (h) = FGFR2 (h) (Homo sapiens, UniProt P21802); assay: FGFR2 (enzymatic assay), TR-FRET; assay type: biochemical; conditions: enzymatic assay; average values if tested multiple times; read-out: FGFR 2 pIC50 (converted)
# FGFR2 (h), sequence (P21802 22-821): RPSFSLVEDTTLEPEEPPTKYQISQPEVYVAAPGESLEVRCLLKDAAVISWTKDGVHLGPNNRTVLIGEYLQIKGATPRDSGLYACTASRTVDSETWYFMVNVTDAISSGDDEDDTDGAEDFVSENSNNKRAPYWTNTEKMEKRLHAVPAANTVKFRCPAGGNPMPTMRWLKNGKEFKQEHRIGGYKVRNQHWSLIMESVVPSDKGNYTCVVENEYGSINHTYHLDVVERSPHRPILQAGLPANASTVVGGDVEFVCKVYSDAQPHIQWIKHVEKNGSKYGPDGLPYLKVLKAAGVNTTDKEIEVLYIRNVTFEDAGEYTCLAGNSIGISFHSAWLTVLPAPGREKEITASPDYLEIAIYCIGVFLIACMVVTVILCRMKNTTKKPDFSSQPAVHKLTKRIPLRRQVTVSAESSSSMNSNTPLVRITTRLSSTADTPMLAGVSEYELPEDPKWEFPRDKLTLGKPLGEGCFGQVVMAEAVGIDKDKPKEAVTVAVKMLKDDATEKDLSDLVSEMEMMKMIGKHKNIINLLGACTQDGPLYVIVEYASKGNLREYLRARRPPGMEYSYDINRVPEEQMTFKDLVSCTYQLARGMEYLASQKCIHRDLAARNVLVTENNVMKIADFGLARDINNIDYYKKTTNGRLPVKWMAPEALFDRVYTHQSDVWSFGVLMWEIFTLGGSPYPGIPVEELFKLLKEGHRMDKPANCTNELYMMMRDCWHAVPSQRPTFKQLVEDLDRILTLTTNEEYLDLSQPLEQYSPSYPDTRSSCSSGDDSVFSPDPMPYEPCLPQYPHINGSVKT
# In short: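 Phosphorylation of 500 nM Btn-Flt3 by human FGFR2 (150 ng/ml) is measured at 0.4 μM ATP. The buffer is 50 mM HEPES pH 7.5 containing 6 mM MnCl2, 1 mM DTT, 0.1 mM Na3VO4 and 0.01% Triton-X-100, and compound is tested at 1% DMSO final.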
# [1] = tested on: Ba/F3-KDR-transfected cells; assay: Ba/F3-KDR (plus IL3) cellular proliferation assay, counterscreen with 10 ng/ml murine IL3; assay type: cell-based; conditions: read-out: BAF3-KDR (PLUS IL3) pIC50 (converted)
# In short: (§1)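 Compound in DMSO was dispensed first, then transfected cells in serum-containing RPMI-1640 were added. After a 24 h incubation, viability was gauged by resazurin reduction over 4 h, measured as fluorescence.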
# [2] = biological target: T1, Ba/F3-KDR-transfected cells (Homo sapiens, UniProt P35968); assay: Ba/F3-KDR (minus IL3) cellular proliferation assay, Alamar Blue; assay type: cell-based
# T1 construct: BAF3-KDR (MIN IL3) pIC50; other: minus IL3
# T1 sequence (P35968 whole entry, change not shown): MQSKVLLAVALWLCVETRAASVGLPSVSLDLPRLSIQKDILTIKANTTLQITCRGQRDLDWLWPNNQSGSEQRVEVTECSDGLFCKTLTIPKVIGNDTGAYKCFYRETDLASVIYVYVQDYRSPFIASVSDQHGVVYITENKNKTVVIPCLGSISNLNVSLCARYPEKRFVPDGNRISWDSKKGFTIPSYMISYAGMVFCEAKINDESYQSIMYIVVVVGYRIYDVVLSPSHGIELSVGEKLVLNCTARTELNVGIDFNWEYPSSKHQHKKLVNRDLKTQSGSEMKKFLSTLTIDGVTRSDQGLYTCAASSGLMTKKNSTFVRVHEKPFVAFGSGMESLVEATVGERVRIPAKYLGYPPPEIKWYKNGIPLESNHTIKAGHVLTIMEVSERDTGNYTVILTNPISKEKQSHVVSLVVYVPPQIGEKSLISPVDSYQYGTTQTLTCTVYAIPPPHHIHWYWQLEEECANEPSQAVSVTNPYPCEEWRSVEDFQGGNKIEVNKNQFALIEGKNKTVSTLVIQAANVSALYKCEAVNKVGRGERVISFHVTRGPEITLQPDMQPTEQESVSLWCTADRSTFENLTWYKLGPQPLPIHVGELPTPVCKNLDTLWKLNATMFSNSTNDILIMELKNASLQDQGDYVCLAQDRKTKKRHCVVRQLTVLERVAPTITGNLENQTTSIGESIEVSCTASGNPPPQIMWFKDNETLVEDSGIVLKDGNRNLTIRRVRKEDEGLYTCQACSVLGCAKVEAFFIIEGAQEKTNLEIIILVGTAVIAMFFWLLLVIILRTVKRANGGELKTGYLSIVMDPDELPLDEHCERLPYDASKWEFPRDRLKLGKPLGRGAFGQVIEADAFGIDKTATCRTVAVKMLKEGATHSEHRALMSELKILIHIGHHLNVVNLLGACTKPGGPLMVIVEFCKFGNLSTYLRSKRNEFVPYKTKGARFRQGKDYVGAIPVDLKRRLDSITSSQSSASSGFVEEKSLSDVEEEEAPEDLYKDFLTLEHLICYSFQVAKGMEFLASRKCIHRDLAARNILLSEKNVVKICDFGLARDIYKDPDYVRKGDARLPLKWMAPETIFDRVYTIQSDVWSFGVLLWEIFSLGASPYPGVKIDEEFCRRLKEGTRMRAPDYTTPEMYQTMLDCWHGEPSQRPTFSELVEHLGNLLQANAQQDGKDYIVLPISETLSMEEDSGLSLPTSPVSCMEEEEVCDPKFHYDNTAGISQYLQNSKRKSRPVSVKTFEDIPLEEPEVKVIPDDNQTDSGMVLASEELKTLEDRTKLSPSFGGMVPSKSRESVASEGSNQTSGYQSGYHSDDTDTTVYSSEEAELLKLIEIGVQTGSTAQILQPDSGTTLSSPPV
# In short: as §1
# [3] = tested on: Ba/F3-FGFR3-transfected cells; assay: Ba/F3-FGFR3 (plus IL3) cellular proliferation assay, counterscreen with 10 ng/ml murine IL3; assay type: cell-based; conditions: read-out: BAF3-FGFR3 (PLUS IL3) pIC50 (converted)
# In short: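 Ba/F3 cells transfected with FGFR3, 20000/well in phenol red-free RPMI-1640 with 10% FBS, exposed to compound for 24 h at 37 °C, 5% CO2. Alamar Blue (resazurin) added for 4 h more; fluorescence read at ex 540/em 590 nm. Counterscreen run the same way with 10 ng/ml murine IL3.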
# [4] = biological target: Ba/F3-FGFR4-transfected cells (Homo sapiens, UniProt P22455); assay: Ba/F3-FGFR4 cellular proliferation assay, Alamar Blue; assay type: cell-based
# Ba/F3-FGFR4-transfected cells, sequence (P22455 whole entry, change not shown): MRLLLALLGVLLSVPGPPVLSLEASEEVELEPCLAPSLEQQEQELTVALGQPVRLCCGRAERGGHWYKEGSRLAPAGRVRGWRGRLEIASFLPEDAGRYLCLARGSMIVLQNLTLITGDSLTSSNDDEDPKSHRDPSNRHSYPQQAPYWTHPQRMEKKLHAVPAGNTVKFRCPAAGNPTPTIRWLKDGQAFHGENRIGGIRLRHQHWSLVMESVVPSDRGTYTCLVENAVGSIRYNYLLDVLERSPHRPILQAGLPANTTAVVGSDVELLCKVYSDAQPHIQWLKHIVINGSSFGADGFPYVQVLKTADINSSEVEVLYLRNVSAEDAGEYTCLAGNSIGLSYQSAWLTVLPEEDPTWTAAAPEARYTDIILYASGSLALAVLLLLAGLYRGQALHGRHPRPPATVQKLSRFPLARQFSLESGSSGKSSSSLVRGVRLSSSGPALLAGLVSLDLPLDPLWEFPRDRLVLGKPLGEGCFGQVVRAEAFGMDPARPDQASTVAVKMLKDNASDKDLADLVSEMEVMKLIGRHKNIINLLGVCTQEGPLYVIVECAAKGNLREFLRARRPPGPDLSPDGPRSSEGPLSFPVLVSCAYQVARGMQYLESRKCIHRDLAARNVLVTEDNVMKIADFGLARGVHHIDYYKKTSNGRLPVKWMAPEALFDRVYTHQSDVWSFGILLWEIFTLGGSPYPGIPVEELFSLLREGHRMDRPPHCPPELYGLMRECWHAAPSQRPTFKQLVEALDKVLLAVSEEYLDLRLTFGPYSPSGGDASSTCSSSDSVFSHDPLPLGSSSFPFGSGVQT
# In short: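 Step one: compound dilutions in DMSO are sprayed into wells. Step two: transfected Ba/F3-FGFR4 cells are added at 20000 per well and incubated 24 hours at 37° C. Step three: Alamar Blue is added for 4 hours and relative fluorescence is measured.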
# [5] = plus IL3 (10 ng/ml murine IL3, counterscreen)
# KDR (h), sequence (P35968 20-1356): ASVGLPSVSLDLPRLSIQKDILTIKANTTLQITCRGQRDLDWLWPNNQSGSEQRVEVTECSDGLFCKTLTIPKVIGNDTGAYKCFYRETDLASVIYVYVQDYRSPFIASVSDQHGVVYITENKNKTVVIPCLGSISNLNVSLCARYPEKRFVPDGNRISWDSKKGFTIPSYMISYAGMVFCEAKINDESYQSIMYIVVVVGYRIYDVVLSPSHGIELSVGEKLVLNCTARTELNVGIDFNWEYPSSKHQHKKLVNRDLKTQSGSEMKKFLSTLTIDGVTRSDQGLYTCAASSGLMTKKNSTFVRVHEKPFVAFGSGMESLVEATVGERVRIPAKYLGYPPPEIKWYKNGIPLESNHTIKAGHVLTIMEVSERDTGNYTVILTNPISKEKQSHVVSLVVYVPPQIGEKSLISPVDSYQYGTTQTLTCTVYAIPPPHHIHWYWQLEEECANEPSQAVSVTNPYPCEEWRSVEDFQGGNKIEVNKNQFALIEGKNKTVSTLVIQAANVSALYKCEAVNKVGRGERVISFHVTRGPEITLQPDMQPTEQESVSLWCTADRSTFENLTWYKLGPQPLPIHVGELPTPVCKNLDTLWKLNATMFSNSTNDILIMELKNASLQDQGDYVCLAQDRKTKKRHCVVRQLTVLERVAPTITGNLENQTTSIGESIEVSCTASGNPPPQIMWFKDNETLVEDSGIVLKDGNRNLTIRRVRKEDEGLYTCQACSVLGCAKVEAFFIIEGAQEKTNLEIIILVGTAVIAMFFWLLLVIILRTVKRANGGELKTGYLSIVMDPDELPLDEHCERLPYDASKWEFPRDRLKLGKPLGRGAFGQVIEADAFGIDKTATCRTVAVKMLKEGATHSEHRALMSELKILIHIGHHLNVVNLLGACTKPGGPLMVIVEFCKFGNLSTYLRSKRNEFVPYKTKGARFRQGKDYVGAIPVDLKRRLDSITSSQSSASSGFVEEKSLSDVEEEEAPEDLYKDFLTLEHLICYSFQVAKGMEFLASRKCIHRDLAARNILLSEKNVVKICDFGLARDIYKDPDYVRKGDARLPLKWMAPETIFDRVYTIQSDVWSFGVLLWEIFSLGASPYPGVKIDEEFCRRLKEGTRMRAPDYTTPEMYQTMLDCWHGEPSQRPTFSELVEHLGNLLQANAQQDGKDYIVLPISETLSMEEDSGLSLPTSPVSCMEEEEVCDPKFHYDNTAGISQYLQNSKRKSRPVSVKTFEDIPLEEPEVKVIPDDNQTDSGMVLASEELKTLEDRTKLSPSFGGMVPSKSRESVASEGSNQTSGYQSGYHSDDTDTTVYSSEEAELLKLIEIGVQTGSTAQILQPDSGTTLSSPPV
Compound,IC50 (KDR (h)) [nM],IC50 (FGFR1 (h)) [nM],IC50 (FGFR2 (h)) [nM],IC50 [1] [nM],BAF3-KDR (MIN IL3) pIC50 [2],IC50 [3] [nM],BAF3-FGFR4 pIC50 [4],"IC50 [1, 5] [nM]","IC50 [3, 5] [nM]"
CNCCN(c1ccc2ncc(-c3cnn(C)c3)nc2n1)c1cc(OC)cc(OC)c1F [Compound 39],46.8,2.19,5.37,> 10000,~6.19,> 10000,6.73,,
COc1cc(OC)c(F)c(N(CCO)c2ccc3ncc(-c4cnn(C)c4)nc3n2)c1 [Compound 40],17.4,0.724,1.48,,6.00,,7.04,> 10000,> 10000
COc1cc(OC)c(F)c(N(Cc2c[nH]cn2)c2ccc3ncc(-c4cnn(C)c4)nc3n2)c1 [Compound 41],5.37,0.363,1.32,,6.70,,7.47,> 10000,> 10000
COc1cc(OC)c(Cl)c(N(Cc2ncc[nH]2)c2ccc3ncc(-c4cnn(C)c4)nc3n2)c1 [Compound 42],8.91,1.38,2.04,,6.89,,7.35,> 10000,> 10000
CNCCn1/c(=N/c2c(F)cccc2F)ccc2ncc(-c3cnn(C)c3)nc21 [Compound 44],> 1000,490,219,,<5,,<5,> 10000,> 10000
COc1cc(/N=c2\ccc3ncc(-c4cnn(C)c4)nc3n2CC2CCC(=O)N2)c(F)c(OC)c1 (centres unmarked) [Compound 45],13.5,1.48,1.91,,~5.96,,6.59,> 10000,> 10000
COc1cc(OC)c(F)c(N(CC2CCC(=O)N2)c2ccc3ncc(-c4cnn(C)c4)nc3n2)c1 (centres unmarked) [Compound 46],41.7,1.82,2.45,,5.35,,6.76,> 10000,> 10000
COc1cc(OC)cc(N(CC2CCC(=O)N2)c2ccc3ncc(-c4cnn(C)c4)nc3n2)c1 (centres unmarked) [Compound 49],60.3,3.24,1.95,,5.16,,6.24,> 10000,> 10000
COCC(O)CN(c1ccc2ncc(-c3cnn(C)c3)nc2n1)c1c(F)c(OC)cc(OC)c1F (centres unmarked) [Compound 50],21.9,1.74,3.89,,6.23,,7.66,> 10000,> 10000
COCC(O)Cn1c(=Nc2c(F)c(OC)cc(OC)c2F)ccc2ncc(-c3cnn(C)c3)nc21 (centres unmarked) [Compound 51],7.76,0.589,1.29,,5.93,,7.77,> 10000,> 10000
COc1cc(OC)c(F)c(/N=c2\ccc3ncc(-c4cnn(C)c4)nc3n2CCCN2CCCC2=O)c1F [Compound 55],2.82,0.603,1.26,,7.13,,7.71,> 10000,> 10000
COc1cc(OC)c(F)c(N(CCCN2CCCC2=O)c2ccc3ncc(-c4cnn(C)c4)nc3n2)c1F [Compound 56],7.76,0.891,2.82,,6.60,,7.41,> 10000,> 10000
COc1cc(OC)c(F)c(N(CC(O)COC(C)C)c2ccc3ncc(-c4cnn(C)c4)nc3n2)c1F (centres unmarked) [Compound 63],15.8,3.72,6.17,,6.58,,7.49,> 10000,> 10000
COc1cc(OC)c(F)c(/N=c2\ccc3ncc(-c4cnn(C)c4)nc3n2CC(O)COC(C)C)c1F (centres unmarked) [Compound 64],7.41,0.776,1.62,,6.31,,7.52,> 10000,> 10000
COc1ccc(Cl)c(N(Cc2ncc[nH]2)c2ccc3ncc(-c4cnn(C)c4)nc3n2)c1Cl [Compound 65],191,38.9,~11.2,,5.06,,5.21,> 10000,> 10000
COc1cc(OC)c(F)c(N(CCN)c2ccc3ncc(-c4cnn(C)c4)nc3n2)c1F [Compound 67],14.5,0.813,1.78,,6.59,,7.37,> 10000,> 10000
COc1cc(OC)c(F)c(/N=c2\ccc3ncc(-c4cnn(C)c4)nc3n2CCN)c1F [Compound 68],15.8,0.575,1.58,,6.07,,7.14,> 10000,> 10000
CNCCN(c1ccc2ncc(-c3cnn(C)c3)nc2n1)c1c(F)ccc(OC)c1Cl [Compound 69],417,3.02,4.27,,5.13,,6.11,> 10000,> 10000
COc1cc(OC)cc(N(Cc2nc[nH]n2)c2ccc3ncc(-c4cnn(C)c4)nc3n2)c1 [Compound 71],19.1,1.07,1.55,> 10000,6.03,> 10000,7.14,,
COc1ccc(F)c(N(Cc2ncc[nH]2)c2ccc3ncc(-c4cnn(C)c4)nc3n2)c1Cl [Compound 73],63.1,2.4,2.82,,5.55,,6.50,> 10000,> 10000
CNCCN(c1ccc2ncc(-c3cnn(C)c3)nc2n1)c1c(Cl)c(OC)cc(OC)c1Cl [Compound 81],195,5.89,9.12,,5.36,,5.76,> 10000,> 10000
CNCCN(c1ccc2ncc(-c3cnn(C)c3)nc2n1)c1c(Cl)ccc(OC)c1Cl [Compound 83],> 1000,75.9,49,,<5,,<5,> 10000,> 10000
CNCCn1/c(=N/c2c(Cl)ccc(OC)c2Cl)ccc2ncc(-c3cnn(C)c3)nc21 [Compound 84],> 1000,224,126,,<5,,<5,> 10000,> 10000
COc1cc(OC)c(F)c(N(Cc2nc[nH]n2)c2ccc3ncc(-c4cnn(C)c4)nc3n2)c1F [Compound 85],6.76,1.02,2.04,,6.43,,7.66,> 10000,> 10000
COc1cc(OC)c(F)c(N(Cc2nc[nH]n2)c2ccc3ncc(-c4cnn(C)c4)nc3n2)c1 [Compound 86],7.59,1.26,1.41,,6.24,,7.33,> 10000,> 10000
COc1ccc(Cl)c(/N=c2\ccc3ncc(-c4cnn(C)c4)nc3n2CC2CCC(=O)N2)c1Cl (centres unmarked) [Compound 92],309,61.7,30.2,,<5,,<5,> 10000,> 10000
